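Where inhibition never reached the appropriate level, the endpoint shown equals the highest concentration tested. Otherwise, values were interpolated linearly from a five-concentration, 48-hour dose response in 96-well plates. Abbreviation: GI50, concentration required for 50% inhibition of growth.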 Calls of active or inactive are those of the source. Rule as the data show it: active = GI50 up to about 1.1 µM and inactive = higher. Peptide text beside a SMILES is read from it. * marks the point of attachment. OSu = O=C1CCC(=O)N1O*
Columns and labels:
Assay in all cases: NCI-60 cell line screen, 48 h
PC-3 = test system: PC-3
SF-268 = test system: SF-268
HOP-62 = test system: HOP-62
UACC-257 = test system: UACC-257
A498 = test system: A498
NCI/ADR-RES = test system: NCI/ADR-RES
BT-549 = test system: BT-549
COLO 205 = test system: COLO 205
M14 = test system: M14
K562 = test system: K562
HL-60 = test system: HL-60
ACHN = test system: ACHN
NCI-H226 = test system: NCI-H226
SR = test system: SR
DU-145 = test system: DU-145
SN12C = test system: SN12C
KM12 = test system: KM12
MCF7 = test system: MCF7
OVCAR-3 = test system: OVCAR-3
SK-MEL-28 = test system: SK-MEL-28
Hs-578T = test system: Hs-578T
A549 = test system: A549
SK-MEL-5 = test system: SK-MEL-5
HOP-92 = test system: HOP-92
SK-OV-3 = test system: SK-OV-3
MOLT-4 = test system: MOLT-4
IGROV-1 = test system: IGROV-1
786-0 = test system: 786-0
UACC-62 = test system: UACC-62
Malme-3M = test system: Malme-3M
TK-10 = test system: TK-10
CAKI-1 = test system: CAKI-1
RXF 393 = test system: RXF 393
MDA-MB-435 = test system: MDA-MB-435
HCT-15 = test system: HCT-15
MDA-MB-231 = test system: MDA-MB-231
SF-295 = test system: SF-295
HCT-116 = test system: HCT-116
LOX IMVI = test system: LOX IMVI
SK-MEL-2 = test system: SK-MEL-2
OVCAR-8 = test system: OVCAR-8
SNB-19 = test system: SNB-19
RPMI-8226 = test system: RPMI-8226
U-251 = test system: U-251
OVCAR-4 = test system: OVCAR-4
SW-620 = test system: SW-620
SF-539 = test system: SF-539
NCI-H23 = test system: NCI-H23
CCRF-CEM = test system: CCRF-CEM
HCC 2998 = test system: HCC 2998
SNB-75 = test system: SNB-75
T47D = test system: T47D
OVCAR-5 = test system: OVCAR-5
EKVX = test system: EKVX
NCI-H460 = test system: NCI-H460
NCI-H522 = test system: NCI-H522
UO-31 = test system: UO-31
HT-29 = test system: HT-29
MDA-N = test system: MDA-N

For `OC1(c2ccccc2)CC2CCC(C1)N2CCCC(O)(c1ccccc1)c1ccccc1` (stereo not given), the GI50 (PC-3) was 3.44 µM (inactive), the GI50 (SF-268) was 13.4 µM (inactive) and the GI50 (HOP-62) was 15.5 µM (inactive). For the same compound, the GI50 (UACC-257) was 2 µM (inactive), the GI50 (A498) was 15.5 µM (inactive) and the GI50 (NCI/ADR-RES) was 17.7 µM (inactive). The GI50 (BT-549) was 13 µM (inactive), the GI50 (COLO 205) was 10.5 µM (inactive) and the GI50 (M14) was 16.4 µM (inactive). For the same compound, the GI50 (K562) was 4.99 µM (inactive), the GI50 (HL-60) was 22.9 µM (inactive) and the GI50 (ACHN) was 17.2 µM (inactive). For the same compound, the GI50 (NCI-H226) was 12.4 µM (inactive), the GI50 (SR) was 11.8 µM (inactive) and the GI50 (DU-145) was 21.4 µM (inactive). The GI50 (SN12C) was 16.7 µM (inactive), the GI50 (KM12) was 15.3 µM (inactive) and the GI50 (MCF7) was 16.1 µM (inactive). For the same compound, the GI50 (OVCAR-3) was 16.4 µM (inactive), the GI50 (SK-MEL-28) was 17.7 µM (inactive) and the GI50 (Hs-578T) was 4.83 µM (inactive). For the same compound, the GI50 (A549) was 17.1 µM (inactive), the GI50 (SK-MEL-5) was 3.2 µM (inactive) and the GI50 (HOP-92) was 5.62 µM (inactive). The GI50 (SK-OV-3) was 13.8 µM (inactive), the GI50 (MOLT-4) was 7.45 µM (inactive) and the GI50 (IGROV-1) was 7.98 µM (inactive). The GI50 (786-0) was 12.5 µM (inactive), the GI50 (UACC-62) was 14.3 µM (inactive) and the GI50 (Malme-3M) was 15.9 µM (inactive). For the same compound, the GI50 (TK-10) was 12.7 µM (inactive), the GI50 (CAKI-1) was 14 µM (inactive) and the GI50 (RXF 393) was 11.9 µM (inactive). The GI50 (MDA-MB-435) was 12 µM (inactive), the GI50 (HCT-15) was 14.2 µM and the GI50 (MDA-MB-231) was 18.9 µM (inactive). The GI50 (SF-295) was 3.33 µM (inactive), the GI50 (HCT-116) was 14.6 µM (inactive) and the GI50 (LOX IMVI) was 10.6 µM (inactive). The GI50 (SK-MEL-2) was 20.3 µM (inactive), the GI50 (OVCAR-8) was 19.2 µM (inactive) and the GI50 (SNB-19) was 20.7 µM (inactive). For the same compound, the GI50 (RPMI-8226) was 2.28 µM (inactive), the GI50 (U-251) was 15.1 µM (inactive) and the GI50 (OVCAR-4) was 33.8 µM (inactive). The GI50 (SW-620) was 7.33 µM (inactive), the GI50 (SF-539) was 4.54 µM (inactive) and the GI50 (NCI-H23) was 11.9 µM (inactive). For the same compound, the GI50 (CCRF-CEM) was 4.33 µM (inactive), the GI50 (HCC 2998) was 2.14 µM (inactive) and the GI50 (SNB-75) was 11.2 µM (inactive). The GI50 (T47D) was 21.3 µM (inactive), the GI50 (OVCAR-5) was 25.8 µM (inactive) and the GI50 (EKVX) was 16.5 µM (inactive). The GI50 (NCI-H460) was 2.2 µM (inactive), the GI50 (NCI-H522) was 10.2 µM (inactive) and the GI50 (UO-31) was 7.55 µM (inactive). For the same compound, the GI50 (HT-29) was 2.78 µM (inactive).
With `NCCCCC(NC(=O)C(N)Cc1ccc(O)cc1)C(=O)NC(CCCCN)C(=O)NC(CCCCN)C(=O)ON1C(=O)CCC1=O` (stereo not given) (H-YKKK-OSu; configuration not given here) the GI50 (PC-3) was > 100 µM (inactive), the GI50 (HOP-62) was > 100 µM (inactive) and the GI50 (UACC-257) was > 100 µM (inactive). For the same compound, the GI50 (A498) was > 100 µM (inactive), the GI50 (BT-549) was > 100 µM (inactive) and the GI50 (COLO 205) was > 100 µM (inactive). The GI50 (M14) was > 100 µM (inactive), the GI50 (K562) was > 100 µM (inactive) and the GI50 (HL-60) was > 100 µM (inactive). The GI50 (ACHN) was > 100 µM (inactive), the GI50 (NCI-H226) was > 100 µM (inactive) and the GI50 (SR) was > 100 µM (inactive). The GI50 (SN12C) was > 100 µM (inactive), the GI50 (KM12) was > 100 µM (inactive) and the GI50 (MCF7) was > 100 µM (inactive). The GI50 (SK-MEL-28) was > 100 µM (inactive), the GI50 (Hs-578T) was > 100 µM (inactive) and the GI50 (A549) was > 100 µM (inactive). The GI50 (SK-MEL-5) was > 100 µM (inactive), the GI50 (HOP-92) was > 100 µM (inactive) and the GI50 (MOLT-4) was > 100 µM (inactive). For the same compound, the GI50 (IGROV-1) was > 100 µM (inactive), the GI50 (786-0) was > 100 µM (inactive) and the GI50 (UACC-62) was > 100 µM (inactive). The GI50 (Malme-3M) was > 100 µM (inactive), the GI50 (TK-10) was > 100 µM (inactive) and the GI50 (RXF 393) was > 100 µM (inactive). For the same compound, the GI50 (HCT-15) was greater than 100 µM, the GI50 (MDA-MB-231) was > 100 µM (inactive) and the GI50 (HCT-116) was > 100 µM (inactive). For the same compound, the GI50 (SK-MEL-2) was > 100 µM (inactive), the GI50 (OVCAR-8) was > 100 µM (inactive) and the GI50 (SNB-19) was > 100 µM (inactive). The GI50 (RPMI-8226) was > 100 µM (inactive), the GI50 (U-251) was > 100 µM (inactive) and the GI50 (MDA-N) was > 100 µM (inactive). For the same compound, the GI50 (SW-620) was > 100 µM (inactive), the GI50 (NCI-H23) was > 100 µM (inactive) and the GI50 (HCC 2998) was > 100 µM (inactive). The GI50 (SNB-75) was > 100 µM (inactive), the GI50 (T47D) was 49.5 µM (inactive) and the GI50 (OVCAR-5) was > 100 µM (inactive). The GI50 (EKVX) was > 100 µM (inactive), the GI50 (NCI-H460) was > 100 µM (inactive) and the GI50 (UO-31) was > 100 µM (inactive). The GI50 (HT-29) was > 100 µM (inactive).
`O=C(O)c1nc2cc(C(F)(F)F)ccc2nc1Nc1ccc(F)cc1` was tested, and the GI50 (PC-3) was 10.8 µM (inactive), the GI50 (SF-268) was 22.3 µM (inactive) and the GI50 (UACC-257) was 20.6 µM (inactive). The GI50 (A498) was 14.3 µM (inactive), the GI50 (NCI/ADR-RES) was 20 µM (inactive) and the GI50 (BT-549) was 12.6 µM (inactive). The GI50 (COLO 205) was 15.9 µM (inactive), the GI50 (M14) was 27 µM (inactive) and the GI50 (K562) was 13.5 µM (inactive). For the same compound, the GI50 (ACHN) was 12.3 µM (inactive), the GI50 (NCI-H226) was 27 µM (inactive) and the GI50 (SR) was 17.1 µM (inactive). The GI50 (KM12) was 6.64 µM (inactive), the GI50 (MCF7) was 22.2 µM (inactive) and the GI50 (OVCAR-3) was 15.8 µM (inactive). The GI50 (SK-MEL-28) was 25.6 µM (inactive), the GI50 (Hs-578T) was 19.6 µM (inactive) and the GI50 (A549) was 11.2 µM (inactive). The GI50 (SK-MEL-5) was 16.2 µM (inactive), the GI50 (HOP-92) was 13.5 µM (inactive) and the GI50 (SK-OV-3) was 30.7 µM (inactive). For the same compound, the GI50 (MOLT-4) was 13.6 µM (inactive), the GI50 (IGROV-1) was 18.7 µM (inactive) and the GI50 (786-0) was 22.4 µM (inactive). The GI50 (UACC-62) was 12.6 µM (inactive), the GI50 (Malme-3M) was 12.4 µM (inactive) and the GI50 (TK-10) was 20 µM (inactive). For the same compound, the GI50 (CAKI-1) was 25.2 µM (inactive), the GI50 (RXF 393) was 16.3 µM (inactive) and the GI50 (MDA-MB-435) was 7.71 µM (inactive). For the same compound, the GI50 (MDA-MB-231) was 22.9 µM (inactive), the GI50 (SF-295) was 13.4 µM (inactive) and the GI50 (HCT-116) was 15.4 µM (inactive). The GI50 (LOX IMVI) was 18.7 µM (inactive), the GI50 (SK-MEL-2) was 7.16 µM (inactive) and the GI50 (OVCAR-8) was 19.4 µM (inactive). The GI50 (SNB-19) was 16.7 µM (inactive), the GI50 (RPMI-8226) was 4.17 µM (inactive) and the GI50 (U-251) was 18.3 µM (inactive). The GI50 (MDA-N) was 22.5 µM (inactive), the GI50 (SW-620) was 17.3 µM (inactive) and the GI50 (SF-539) was 17.5 µM (inactive). The GI50 (NCI-H23) was 16 µM (inactive), the GI50 (CCRF-CEM) was 12.6 µM (inactive) and the GI50 (SNB-75) was 18.5 µM (inactive). For the same compound, the GI50 (T47D) was 20.2 µM (inactive), the GI50 (OVCAR-5) was 35.1 µM (inactive) and the GI50 (EKVX) was 21.9 µM (inactive). For the same compound, the GI50 (NCI-H522) was 7.5 µM (inactive), the GI50 (UO-31) was 15.8 µM (inactive) and the GI50 (HT-29) was 23 µM (inactive).

— ChEMBL document CHEMBL1201862, “PubChem BioAssay data set” (2004)
